Source: patent US8207188B2, “Treatment of diseases modulated by a H4 receptor agonist” (priority 2006, dated 2012)
“Also recorded” adds a separate entry of the source.

Columns and labels:
Type in all cases: cell-based
[1] = system: Colony Forming Cells (CFC, mouse medullary cells C57B1/6) expressing H4R; experiment: Cell cycle analysis of haematopoietic progenitor cells (propidium iodide, FACS); settings: 10 μM
Protocol: Haematopoietic progenitor cells were incubated for 1-3 day(s) with a cocktail of growth factors (IL-3, 10 ng/ml, IL-6 10 ng/ml), […] (50 ng/ml) in the culture medium StemSpan® (without serum) in the presence and absence of TRQ and H4R antagonist (JNJ7777120, Sigma Aldrich).
Cells were later stained with propidium iodide (PI) for the analysis of the cell cycle according to the following protocol:
2×10^6 cells/ml were labelled with CD1 17-FITC for 20 min in PBS, then washed in PBS and stained with PBS 1% formaldehyde, without methanol, at 4° C. for 5 min and again washed in PBS.
The cells were then lysed with 1 ml of PVTritonX100 and RNAse without DNAse (0.2 mcg/ml), PI (20 mcg/ml), and incubated in PBS for 30 min at ambient temperature.
The lysed cells were analyzed with FACS scan (FL2-area IFL2-width) for cell cycle analysis and FL1 for labelling of cell Surface.
10^6 cells enriched in haematopoietic stem cells were incubated in 2 ml of CFSE […] in PBS 10 min, 37° C. The reaction was stopped by the addition of cold PBS in excess (5×) and centrifuged for 5 min at 1700 rpm.
Cells were resuspended in the culture medium StemSpan® (without serum) and stimulated with the growth Factor cocktail, and analyze in FACs scan (FL1) after 72 hours incubation.

[2] = target: T1, H4R (Mus musculus, UniProt Q91ZY2); experiment: Cell cycle status after H4R silencing with siRNA; settings: 10 μM; H4R siRNA transfected c-kit+ cells
T1 construct: endogenous in cells; host or cells: freshly sorted c-kit+ haematopoietic progenitor cells
T1 sequence (Q91ZY2 1-391): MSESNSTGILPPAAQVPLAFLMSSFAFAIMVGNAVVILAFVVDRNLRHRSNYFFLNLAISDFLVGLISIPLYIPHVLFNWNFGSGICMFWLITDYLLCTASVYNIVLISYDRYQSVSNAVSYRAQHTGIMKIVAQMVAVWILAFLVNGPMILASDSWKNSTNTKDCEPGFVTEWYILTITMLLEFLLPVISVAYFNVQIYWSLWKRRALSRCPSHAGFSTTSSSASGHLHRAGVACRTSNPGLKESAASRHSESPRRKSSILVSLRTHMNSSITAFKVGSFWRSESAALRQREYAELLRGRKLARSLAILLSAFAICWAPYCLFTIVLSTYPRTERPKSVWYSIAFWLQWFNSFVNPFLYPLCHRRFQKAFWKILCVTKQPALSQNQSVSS
Protocol: H4R silencing was performed with freshly sorted c-kit^+ cells. For transfection, 3 μl of HiPerFect reagent (Qiagen; Courtaboeuf, France) and 4 μl ([…]) of human and 8 μl (80 pmol) of murine H4R siRNA, scrambled FITC-labeled or unconjugated control siRNAs (all from Santa Cruz Biotechnology) were incubated in 50 μl x-vivo medium (Cambrex; East Rutherford, N.J.) for 20 min at room temperature. The mixture was then added to 50 μl of cell suspension at a final concentration of 10^6 cells/ml and incubated for 20 h, when transfection efficiency was verified with scrambled FITC-conjugated siRNA. Cells were then centrifuged and resuspended at a concentration of 10^5 cells/ml in StemSpan medium with growth factor cocktail. The extinction of H4R protein expression was ascertained by FACS analysis after 24 h. After 3 days of culture with or without tritoqualine (10 μM) or Clobenpropit (10 μM) cells were counted and their viability was assessed by trypan blue exclusion. The cell cycle status was assessed after an overnight incubation.

[3] = system: hematopoietic progenitor cells; experiment: CFU of hematopoietic progenitor cells in the presence of Ara-C; settings: listed as TRQ
Source text: Ara-C is a chemotherapeutic agent that kills cancel cells (or actively dividing cells).

Compound	haematopoietic progenitor cells blocked (G0/G1) [1]	activity inhibiting the cell cycle at the G0/G1 phase after H4R siRNA [2]	protection of cells / cell CFU in the presence of Ara-C [3]
CCOc1c(N)c2c(c(OCC)c1OCC)[C@H]([C@H]1c3c(cc4c(c3OC)OCO4)CCN1C)OC2=O [E1]	Approximately 48%	reversed	–
CCOc1c(N)c2c(c(OCC)c1OCC)C(C1c3c(cc4c(c3OC)OCO4)CCN1C)OC2=O (racemic) [Tritoqualine, 7-Amino-4,5,6-triethoxy-3-(5,6,7,8-tetrahydro-4-methoxy-6-methyl-1,3-dioxolo[4,5-g]isoquinolin-5-yl) phthalide]	–	–	provides protection to the cells; also recorded: cell CFU remains high
CCOc1c(N)c2c(c(OCC)c1OCC)[C@@H]([C@@H]1c3c(cc4c(c3OC)OCO4)CCN1C)OC2=O [E2]	Approximately 60%	reversed	–
